Entries after “also recorded” stand apart in the source; their conditions may differ. Ends that are not written are not given here.
Tests used:
[1] = test system: oral biofilms; assay: Live/dead staining of treated biofilms, confocal laser scanning microscopy; assay type: cell-based, human salivary bacteria; details: biofilms on saliva-coated HA surfaces, BacLight, compared to control
Description: Untreated (a-b) and treated (c-d). Images were obtained at intervals of 2 h (a, c) and 8 h (b, d) following inoculation. […] Images of treated versus untreated biofilm cells were obtained at intervals of 2 h (a, d), 6 h (b, e), and 10 h (c, f) after inoculation of salivary bacteria into the parallel chambers of the dual flow cell. […] (C) Confocal images of control and treated biofilms grown on saliva-coated HA surfaces. Live/Dead BacLight™ Viability kit (Molecular Probes, Eugene, OR) was used to assess the viability of biofilm cells exposed to different treatments. BacLight assay solution was prepared as described by the manufacturer and the specimens were stained in dark at room temperature for 15 min. […] An excitation wavelength of 488 nm was used and the fluorescence light emitted was collected by two separate emission filters, 500-530 nm (SYTO 9, live), and 650-710 nm (propidium iodide, dead).

[2] = test system: oral biofilms; assay: In vitro plaque assay, viable counts of biofilms on saliva-coated HA disks; assay type: cell-based, human salivary bacteria; details: for reduction of viability, intact 66 h-old oral biofilms, compared to water treatment: KSL 200 µg/ml, benzalkonium chloride 0.001%, alone or combined, chlorhexidine positive control
Description: In conjunction with the dual flow cell system, a modification of an in vitro plaque model of biofilm formation described by Guggenheim et al. (Guggenheim et al., 2001) was used to determine the effects of tested antimicrobials and other agents on developed oral biofilms (see Appendix I for details). HA disks (Clarkson, south Williamsport, PA) were employed as substrates for salivary bacteria to form biofilms. […] Following 30 min exposure at 37°C, disks were rinsed with 3 × 1 ml of saline and transferred to sterile 15 ml polypropylene tubes containing 1 ml PBS. Biofilm cells adherent to surfaces (after treatment) were recovered by sonicating for 2 min at 5 watts with a Microson ultrasonic cell disrupter equipped with a cup horn (Misonix Inc., Farmingdale, NY). Settings including the time interval used in the sonication were pre-determined empirically to yield maximal recovery of adherent biofilm cells. The effect of KSL on disrupted biofilms was assessed by recovering biofilm cells from HA disks (45 h-old biofilms) through sonication as described above. The detached biofilm cells (in sterile dH2O) were mixed with an equal volume of aqueous KSL to obtain a final peptide concentration of 200 µg/ml, and the reaction mixtures incubated at 37°C for 30 min. The interactions of KSL and suspended biofilm cells were terminated by washing in PBS. To determine the effect of the surface-active agent (benzalkonium chloride; Sigma, St. […] Viable counts of biofilm cells derived from treated disks or disrupted biofilms were determined by spiral plating serially diluted samples onto blood agar plates. […] The 45 h-old biofilms were exposed to chlorhexidine for 1 min, and to water for 30 min at 37°C.

[3] = assay type: physicochemical; details: pH 5.7
Description: Test solutions of KSL were prepared using a stock peptide solution of 10 mg/ml in deionized water. The degradation of KSL peptide was investigated in sodium acetate (pH 4), sodium phosphate (pH 7.4) and sodium borate (pH 9) buffers at 0.1 M buffer concentration. Each buffer solution containing 200 µg/ml of KSL was incubated in a temperature-controlled oven at 25, 37 and 55°C, respectively. Samples were taken at pre-determined times and analyzed under HPLC conditions described above. The stability of KSL was studied at 37°C in artificial saliva over a three day period. Artificial saliva was used in the in vitro release studies in an attempt to simulate actual conditions of use. The ingredients of the artificial saliva were as follows: sodium chloride, 0.844 g; potassium chloride, 1.200 g; calcium chloride dihydrate, 0.193 g; magnesium chloride hexahydrate, 0.111 g; potassium phosphate dibasic, 0.342 g; water to make to 1000 ml. The pH was adjusted with hydrochloric acid solution to pH 5.7 ± 0.1 [26].

[4] = assay type: physicochemical
Description: The chewing gum formulations were prepared following a procedure described previously. The gum base was heated at a temperature between 50 and 60°C for melting. When the gum base was of the proper fluid consistency, the KSL was added as a fine powder along with the other components. The temperature was kept constant while mixing the components with the gum base in a mortar. After mixing, the homogenous chewing gum mixture was extruded, cut into squares of approximate shape and size and hardened at room temperature overnight. The composition of the gum was as follows: 550 mg of gum base, 420 mg of sorbitol, 10 mg of mannitol, 10 mg of saccharin, and 10, 20 or 30 mg of KSL (total weight: approximately 1 g). In vitro release study of KSL from chewing gums was carried out using an in vitro chewing release apparatus consisting of two modules (AB FIA, Lund, Sweden) (Fig. 1). Each module consists of a thermostatted glass cell in which two vertically oriented pistons holding an upper and a lower chewing plate are mounted. The cells were filled with 40 ml of artificial saliva and the chewing gum was loaded onto the lower chewing surface. […] The released amount of KSL was determined by RP-HPLC.

Compound	viability of biofilm cells by live/dead staining [1]	reduction of viable counts, intact biofilms ([2]; intact 45-h-old biofilms, KSL 200 µg/ml 30 min at 37°C, chlorhexidine 0.12% 1 min)	degradation in artificial saliva (HPLC) [3]	stability of KSL in the gum formulations manufactured at 50-60°C (HPLC of released KSL) [4]	reduction of viability, intact 66 h-old oral biofilms, compared to water treatment [2]	reduction of viability, intact 66 h-old oral biofilms, compared to water treatment ([2]; listed as Bzl)
[H]/N=C(\N/C(=N/[H])NCCCCCCNC(=N)NC(=N)Nc1ccc(Cl)cc1)Nc1ccc(Cl)cc1 [chlorhexidine, chlorhexidine digluconate]	significantly reduced the viability	more reduction in viability; also recorded: larger reduction of viable counts				
KKVVFKVKFK-NH2 [KSL, Lys-Lys-Val-Val-Phe-Lys-Val-Lys-Phe-Lys-NH2]			no degradation peak detected	only an intact KSL peak		
benzalkonium chloride	less impact on the viability				less effect on the viability	no significant reductions in viability

Source: patent EP1951194B1, “ANTIMICROBIAL DECAPEPTIDE COMPOSITION FOR ORAL HYGIENE” (U.S. Government, as represented by the Secretary of the Army, priority 2005, dated 2018)
